Counter-ions that a name gives are not always drawn.
Tests used:
[1] = test system: multiple sclerosis patients; settings: human, in vivo; cited from earlier work
[2] = test system: multiple sclerosis patients; settings: cited from earlier work; for relapses / attacks: clinical reports; for relapses / attacks / disease / disability progression / MRI / MRI lesions: MS patients
[3] = test system: Th40 cells from MS subjects; experiment: Antigen assay: proliferation of CFSE-labeled T cells (Th40) exposed to autologous APC/peptide antigen for 7 days; assay type: cell-based, human
[4] = DR4 co-expressed with DR2, antigen 5 μg/ml
[5] = DR4 co-expressed with DR6, antigen 5 μg/ml
[6] = DR6 a fixed allele, any haplotype at other allele, antigen 5 μg/ml
[7] = RRMS subjects, DR2 at one allele, other allele any haplotype, antigen 5 μg/ml
[8] = DR2 and DR6 co-expressed, antigen 5 μg/ml
[9] = DR6 at both alleles, antigen 5 μg/ml
[10] = DR4 expressing MS subjects, open second allele, antigen 5 μg/ml

C/C(O)=C(\C#N)C(=O)Nc1ccc(C(F)(F)F)cc1 [Aubagio, teriflunomide]
safety in patients [1]: moderate potential for hepatotoxicity

CCCCCCCCc1ccc(CCC(N)(CO)CO)cc1 [Gilenya, fingolimod]
safety in patients [1]: extremely immune-suppressive

O=C1c2c(O)ccc(O)c2C(=O)c2c(NCCNCCO)ccc(NCCNCCO)c21 [Novantrone, mitoxantrone]
relapses / attacks [2]: lessens relapses
disease / disability progression ([2]; reports): slows progression

COC(=O)/C=C/C(=O)OC [Tecfidera, dimethyl fumarate]
relapses / attacks [2]: some reduction in the average annual number of relapses
disease / disability progression ([2]; reports): not reduced significantly

ADPGSRPHLIRLFSRDAPGR [MBP83, MS associated peptide antigen from MBP]
antigen response by Th40 cells [3, 4]: diminished
antigen response by Th40 cells [3, 5]: increased
antigen response by Th40 cells [3, 6]: best response
antigen response by Th40 cells [3, 7]: least reactive

AQGTLSKIFKLGGRDSRSGSPMARR [MBP146, MS associated peptide antigen from MBP]
antigen response by Th40 cells [3, 8]: no response
antigen response by Th40 cells [3, 9]: worst response antigen

FFRDHSYQE [MOG99, MS associated peptide antigen from MOG]
antigen response by Th40 cells [3, 8]: significantly less response
antigen response by Th40 cells [3, 4]: remains high
antigen response by Th40 cells [3, 5]: unaffected
antigen response by Th40 cells [3, 10]: responded
antigen response by Th40 cells [3, 7]: best antigen response

Glatiramer acetate [Copaxone]
relapses / attacks [2]: decreasing frequency and severity of attacks
MRI / MRI lesions ([2]; reports): no reports of changes in MRI lesions

LVERGNHSKIVAGVLGLI [PLP103, MS associated peptide antigen from PLP]
antigen response by Th40 cells [3, 8]: significantly greater than the remaining antigens tested
antigen response by Th40 cells [3, 10]: equally
antigen response by Th40 cells [3, 6]: best response
antigen response by Th40 cells [3, 9]: best Th40 response

MEVGWYRPPFSRVVHLYRNGK [MOG35, MS associated peptide antigen from MOG]
antigen response by Th40 cells [3, 8]: prominent response antigen
antigen response by Th40 cells [3, 10]: very little response

Natalizumab [Tysabri]
MRI / MRI lesions ([2]; reports): some positive effects on MRI
disease / disability progression ([2]; reports): slow progression
reduction in relapse rate ([2]; reports, MS subjects, IV infusion once every four weeks): two-thirds

alemtuzumab [Lemtrada]
safety in patients [1]: significantly increases the risk for opportunistic infections

Reference: patent publication US20170108514A1, “DIAGNOSIS OF MULTIPLE SCLEROSIS IN HUMAN AND ANIMAL SUBJECTS” (THE REGENTS OF THE UNIVERSITY OF COLORADO, a body corporate, priority 2014, published 2017)
